In patent publication US8420630B2 (Boehringer Ingelheim Pharma GmbH & Co. KG, priority 2001, dated 2013):
Counter-ions that a name gives are not always drawn.

What follows are molecules tested against T1, CDK1/cyclinB1 (Homo sapiens, UniProt P06493) (assay: Cyclin B1-CDK1 kinase inhibition test). Conditions: CDK1 tests (Example 13); recombinant cyclin B1/CDK1, substrate histone H1; read-out: CDK1/cyclinB1 IC50 value.
T1 construct: made in house; host or cells: High Five insect cells (Trichoplusia ni), baculovirus coinfection
T1 sequence (P06493 whole entry): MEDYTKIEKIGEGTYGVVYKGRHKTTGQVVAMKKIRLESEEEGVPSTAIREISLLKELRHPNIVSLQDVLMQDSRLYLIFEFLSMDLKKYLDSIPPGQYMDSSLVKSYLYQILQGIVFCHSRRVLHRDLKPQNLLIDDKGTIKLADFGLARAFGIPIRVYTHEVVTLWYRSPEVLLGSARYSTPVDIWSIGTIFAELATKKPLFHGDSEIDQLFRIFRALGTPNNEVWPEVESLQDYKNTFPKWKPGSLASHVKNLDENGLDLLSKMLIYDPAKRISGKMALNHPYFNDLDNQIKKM
T1 sequence (P14635 whole entry partner): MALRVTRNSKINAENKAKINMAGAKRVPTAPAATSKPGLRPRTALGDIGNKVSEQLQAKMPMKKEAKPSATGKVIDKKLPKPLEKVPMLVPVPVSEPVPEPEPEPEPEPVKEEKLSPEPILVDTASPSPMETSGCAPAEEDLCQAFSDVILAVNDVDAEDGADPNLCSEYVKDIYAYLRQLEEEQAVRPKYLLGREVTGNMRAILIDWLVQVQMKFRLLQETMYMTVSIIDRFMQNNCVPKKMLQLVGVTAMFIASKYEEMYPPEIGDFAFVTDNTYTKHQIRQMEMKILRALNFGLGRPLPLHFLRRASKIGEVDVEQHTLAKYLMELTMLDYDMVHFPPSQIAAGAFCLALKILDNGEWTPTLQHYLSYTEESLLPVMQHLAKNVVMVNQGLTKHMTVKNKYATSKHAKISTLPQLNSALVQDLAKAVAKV
Assay type: biochemical
Method: CDK4) were cloned by standard methods using RT-PCR, and cloned into a transfer vector (cyclin in pAcG2T made by Pharmingen, CDKs in p2Bac made by Invitrogen) for the baculovirus system. […] After thawing the cells were resuspended in lysing buffer (50 mM HEPES pH 7.5, 10 mM MgCl2, 1 mM DTT, 5 μg/ml leupeptin, 5 μg/ml aprotinin, 100 μM NaF, 100 μM PMSF, 10 mM β-glycerolphosphate, 100 μM Na3VO4, 30 mM nitrophenylphosphate, 17.5 ml of lysing buffer per 10^8 cells) and incubated on ice for 30 min. […] Cyclin D1-CDK4 was purified by means of a GST-tag on cyclin D1 and then using glutathione beads (total protein about 0.2 mg/ml). All the kinase tests were carried out in 96-well microtitre plates (Greiner PS) in a final volume of 60 μl. […] As a negative control the kinase reaction was carried out in the absence of the substrate histone H1. As a positive control the kinase reaction was carried out in the absence of a test substance. As an internal control 30 μM and 300 μM (final concentration) of the kinase inhibitor olomoucin (Alexis) were used. […] The kinase reaction is started by the addition of 10 μl of ATP mix (0.045 mM ATP, 0.5 μCi ^33P-ATP in kinase buffer) and incubated for 30 min at 30° C. and 600 rpm in a shaking incubator. After incubation the plates were placed on ice and the proteins were precipitated by the addition of 125 μl of ice-cold 5% trichloroacetic acid. After 15 min on ice the precipitates were transferred onto Packard Unifilter 96 GF/B plates with the Packard Harvester System, and collected by vacuum filtration. The precipitates were washed 4 times with dist. H2O at ambient temperature. The filter plates were then dried at 60° C. and 50 μl of scintillation liquid were added to each well (Ultima Gold, Packard). The plate was sealed up with Sealing Tape and after 1 h measured in a scintillation measuring apparatus (Micro Beta made by Wallac).

| IC50 | SMILES |
| --- | --- |
| < 100 nM | COCC(=O)NCCCNc1nc(Nc2ccc(C(N)=O)cc2)ncc1C(F)(F)F [Example 7(028), 4-[4-(3-(2-methoxy-acetamino)-propylamino)-5-trifluoromethyl-pyrimidin-2-ylamino]-benzamide] |
| < 100 nM | FC(F)(F)c1cnc(Nc2ccc(Cl)c(Cl)c2)nc1NCCN1CCOCC1 [Example 1(104), 2-(3,4-dichloro-phenylamino)-4-(2-morpholino-1-ethylamino)-5-trifluoromethyl-pyrimidine] |
| < 100 nM | CC(=O)NCCNc1nc(Nc2ccc(Cl)c(Cl)c2)ncc1C(F)(F)F [Example 2(003), 2-(3,4-dichlorophenylamino)-4-(2-acetylamino-ethylamino)-5-trifluoromethyl-pyrimidine-hydrochloride] |
| < 100 nM | O=C1CCCN1CCCNc1nc(Nc2ccc3[nH]nnc3c2)ncc1C(F)(F)F [Example 2(036), 1-{3-[2-(1H-Benzotriazol-5-ylamino)-5-trifluoromethyl-pyrimidin-4-ylamino]-propyl}-pyrrolidin-2-one] |
| < 100 nM | CC(=O)NCCNc1nc(Nc2cccc(NS(=O)(=O)c3ccccc3)c2)ncc1C(F)(F)F [Example 10(015), N-(2-[2-(3-phenylsulphonylamido-phenylamino)-5-trifluoromethyl-pyrimidin-4-ylamino]-ethyl)-acetamide] |
| < 100 nM | Brc1cnc(Nc2ccc3cn[nH]c3c2)nc1N1CCc2nc[nH]c2CC1 [Example 2(141), [5-Bromo-4-(4,5,7,8-tetrahydro-1H-imidazo[4,5-d]azepin-6-yl)-pyrimidin-2-yl]-(1H-indazol-6-yl)-amine] |
| < 100 nM | Brc1cnc(Nc2ccc3cn[nH]c3c2)nc1N1CCc2[nH]cnc2C1 [Example 2(142), [5-Bromo-4-(1,4,6,7-tetrahydro-imidazo[4,5-c]pyridin-5-yl)-pyrimidin-2-yl]-(1H-indazol-6-yl)-amine] |
| < 100 nM | CC(=O)NCCNc1nc(Nc2ccc(S(=O)(=O)Nc3ccccn3)cc2)ncc1C(F)(F)F [Example 2(059), N-(2-{2-[4-(Pyridin-2-ylsulphamoyl)-phenylamino]-5-trifluoromethyl-pyrimidin-4-ylamino}-ethyl)-acetamide] |
| < 100 nM | O=C(O)CCc1ccc(Nc2ncc(C(F)(F)F)c(NCCc3cccc(O)c3)n2)cc1 [Example 1(046), 2-(4-(2-carboxy-1-ethyl)-phenylamino)-4-(2-(3-hydroxyphenyl)-1-ethyl-amino)-5-trifluoromethyl-pyrimidine] |
| < 100 nM | CC(=O)NCCNc1nc(Nc2ccc(C(=O)NC(C)c3ccccc3)cc2)ncc1C(F)(F)F (stereo not drawn) [Example 8(028), 4-[4-(2-acetylamino-ethylamino)-5-trifluoromethyl-pyrimidin-2-ylamino]-N-(1-phenyl-ethyl)-benzamide] |
| < 100 nM | NCC1CCC(CNc2nc(Nc3cccc(Br)c3)ncc2C(F)(F)F)CC1 (stereo not drawn) [Example 1(088), 2-(3-bromo-phenylamino)-4-(4-aminomethyl-cyclohexylmethylamino)-5-trifluoromethyl-pyrimidine] |
| < 100 nM | CC(=O)NCCNc1nc(Nc2ccc(CC(=O)N(C)C)cc2)ncc1C(F)(F)F [Example 2(053), 2-{4-[4-(2-Acetylamino-ethylamino)-5-trifluoromethyl-pyrimidin-2-ylamino]-phenyl}-N,N-dimethyl-acetamide] |
| < 100 nM | O=C1CCCN1CCCNc1nc(Nc2cc(Cl)cc(Cl)c2)ncc1C(F)(F)F [Example 1(049), 2-(3,5-dichloro-phenylamino)-4-(3-(2-oxo-pyrrolidin-1-yl)-propyl-1-amino)-5-trifluoromethyl-pyrimidine] |
| < 100 nM | CNC(=O)c1ccc(Nc2ncc(C(F)(F)F)c(NCCNC(C)=O)n2)cc1Cl [Example 8(003), 4-[4-(2-acetylamino-ethylamino)-5-trifluoromethyl-pyrimidin-2-ylamino]-2-chloro-N-methyl-benzamide] |
| < 100 nM | O=C(O)c1ccc(Nc2ncc(C(F)(F)F)c(N3CCc4[nH]cnc4C3)n2)cc1 [Example 1(017), 2-(4-carboxy-phenylamino)-4-(1,4,6,7-tetrahydro-imidazo[4,5-c]pyridin-5-yl)-5-trifluoromethyl-pyrimidine] |
| < 100 nM | Cn1ncc2ccc(Nc3ncc(C(F)(F)F)c(NCCCNS(=O)(=O)c4ccc(F)cc4)n3)cc21 [Example 7(012), 4-fluoro-N-{3-[2-(1-methyl-1H-indazol-6-ylamino)-5-trifluoromethyl-pyrimidin-4-ylamino]-propyl}-benzensulphonamide] |

| IC50 | SMILES |
| --- | --- |
| < 100 nM | FC(F)(F)c1cnc(Nc2cc(Cl)cc(Cl)c2)nc1N1CCc2[nH]cnc2C1 [Example 1(014), 2-(3,5-dichlorophenylamino)-4-(1,4,6,7-tetrahydro-imidazo[4,5-c]pyridin-5-yl)-5-trifluoromethyl-pyrimidine] |
| < 100 nM | OCCCCCNc1nc(Nc2ccc(Cl)c(Cl)c2)ncc1C(F)(F)F [Example 1(045), 2-(3,4-dichloro-phenylamino)-4-(5-hydroxy-1-pentylamino)-5-trifluoromethyl-pyrimidine] |
| < 100 nM | NCCCNc1nc(Nc2ccc(Cl)c(Cl)c2)ncc1C(F)(F)F [Example 1(035), 2-(3,4-dichloro-phenylamino)-4-(3-amino-propylamino)-5-trifluoromethyl-pyrimidine] |
| < 100 nM | O=[N+]([O-])c1cnc(Nc2ccc(Br)cc2)nc1N1CCc2[nH]cnc2C1 [Example 1(116), 2-(4-bromophenylamino)-4-(1,4,6,7-tetrahydro-imidazo[4,5-c]pyridin-5-yl)-5-nitro-pyrimidine] |
| < 100 nM | O=[N+]([O-])c1cnc(Nc2ccc(Cl)cc2)nc1N1CCCC(CCCCN2CCCC2)C1 (stereo not drawn) [Example 1(028), 2-(4-chloro-phenylamino)-4-(3-(4-(pyrrolidin-1-yl)butyl)-piperidin-1-yl)-5-nitro-pyrimidine] |
| < 100 nM | CC(=O)NCCNc1nc(Nc2ccc(S(=O)(=O)C(C)C)cc2)ncc1C(F)(F)F [Example 1(692), N-(2-{2-[4-(propane-2-sulphonyl)-phenylamino]-5-trifluoromethyl-pyrimidin-4-ylamino}-ethyl)-acetamide] |
| < 100 nM | NCCNc1nc(Nc2ccc(S(=O)(=O)N3CCOCC3)cc2)ncc1C(F)(F)F [Example 1(689), N4-(2-amino-ethyl)-N2-[4-(morpholine-4-sulphonyl)-phenyl]-5-trifluoromethyl-pyrimidine-2,4-diamine] |
| < 100 nM | CC(=O)NCCNc1nc(Nc2ccc(S(=O)(=O)N3CCN(C)CC3)cc2)ncc1C(F)(F)F [Example 2(058), N-(2-{2-[4-(4-Methyl-piperazin-1-sulphonyl)-phenylamino]-5-trifluoromethyl-pyrimidin-4-ylamino}-ethyl)-acetamide] |
| < 100 nM | NCC1CCN(c2nc(Nc3cccc(Br)c3)ncc2[N+](=O)[O-])CC1 [Example 1(042), 2-(3-bromo-phenylamino)-4-(4-aminomethyl-piperidin-1-yl)-5-nitro-pyrimidine] |
| < 100 nM | O=C1CCCN1CCCNc1nc(Nc2ccc(Cl)c(Cl)c2)ncc1C(F)(F)F [Example 1(041), 2-(3,4-dichloro-phenylamino)-4-(3-(2-oxo-pyrrolidin-1-yl)-propyl-1-amino)-5-trifluoromethyl-pyrimidine] |
| < 100 nM | NCCCCCNc1nc(Nc2ccc(Cl)cc2)ncc1C(F)(F)F [Example 1(079), 2-(4-chloro-phenylamino)-4-(5-amino-pentyl-1-amino)-5-trifluoromethyl-pyrimidine] |
| < 100 nM | CC(=O)NCCNc1nc(Nc2ccc(Cl)c(C(F)(F)F)c2)ncc1C(F)(F)F [Example 2(013), 2-(4-chloro-3-trifluoromethyl-phenylamino)-4-(2-acetylamino-ethylamino)-5-trifluoromethyl-pyrimidine] |
| < 100 nM | O=C1CCCN1CCCNc1nc(Nc2ccc3cn[nH]c3c2)ncc1Br [Example 2(106), 1-{3-[5-Bromo-2-(1H-indazol-6-ylamino)-pyrimidin-4-ylamino]-propyl}-pyrrolidin-2-one] |
| < 100 nM | O=[N+]([O-])c1cnc(Nc2ccc(Cl)cc2)nc1N1CCC[C@H]1CO [Example 1(055), 2-(4-chloro-phenylamino)-4-((2S)-2-hydroxymethyl-pyrrolidin-1-yl)-5-nitro-pyrimidine] |
| < 100 nM | O=C1CCCN1CCCNc1nc(Nc2ccc(CO)cc2)ncc1C(F)(F)F [Example 2(052), 1-{3-[2-(4-Hydroxymethyl-phenylamino)-5-trifluoromethyl-pyrimidin-4-ylamino]-propyl}-pyrrolidin-2-one] |
| < 100 nM | CN(C)C1CCC(Nc2nc(Nc3ccc(Cl)c(Cl)c3)ncc2C(F)(F)F)CC1 (stereo not drawn) [Example 1(120), 2-(3,4-dichlorophenylamino)-4-(4-dimethylamino-cyclohexylamino)-5-trifluoromethyl-pyrimidine] |

| SMILES | IC50 |
| --- | --- |
| COC(=O)NCCCNc1nc(Nc2ccc3cnn(C)c3c2)ncc1C(F)(F)F [Example 7(022)] | < 100 nM |
